Test results reported in US8163702B2, “Treatment of melanoma” (SciClone Pharmaceuticals, Inc., priority 2006, dated 2012).

Tested on: murine B16 melanoma
Experiment: Antitumor effect in murine B16 melanoma model, tumor size and tumor weight (Example 2)
Assay type: in vivo, C57BL/6 mice
Conditions: Day 12
Method: As per aseptic tissue culture procedures, one vial of B16 melanoma cells (supplied by Cell Culture Center of CAMS) was thawed and centrifuged at 1000 rpm, 20-25° C. for 5 minutes. The cell pellets were suspended in 0.1-0.5 mL normal saline (NS) and subcutaneously injected into the right axilla of each mouse (approximately 1×10^6 cells/mouse). When the tumor diameter was 1 cm approximately (measured by vernier caliper), the animals were euthanized with CO2 asphyxiation and the tumor was excised. Tumor cells were suspended in normal saline as previously described and the cell adaptation cycle was repeated once.
On Day 0, 1×10^6 B16 cells in a volume of 0.1 mL normal saline were subcutaneously injected into the right axillary area of the mouse. The day of tumor inoculation was defined as Day 0.
Dosing was initiated on Day 1.
Observations were recorded daily for mortality and moribundity. […] The tumors were excised, separated, and weighed.
Tumor volume was calculated using the following formula: Tumor Volume=Length×Width×Width/2 Tumor volume inhibition rate (IR) was calculated according to the formula: IR(TV)=(TVvehicle−TVdrug treated)/TVvehicle×100% TV is the tumor volume on the day of measurement.
The antitumor effect of the test article was also evaluated by tumor weight. The tumor weight of each mouse was recorded after euthanasia, and the inhibition rate of tumor weight was calculated according to the formula: IR(TW)=(Tumor weightvehicle−Tumor weightdrug treated)/Tumor weightvehicle×100%

For `N[C@H](CCC(=O)N[C@@H](Cc1c[nH]c2ccccc12)C(=O)O)C(=O)O` [SCV-07, γ-D-glutamyl-L-tryptophan], the “Tumor measurements L” value (mouse F2, SCV-07 5.0 mg/kg sc) was 1.0 cm, the “Tumor measurements W” value (mouse F2, SCV-07 5.0 mg/kg sc) was 1.0 cm and the Tumor volumes (mouse F2, SCV-07 5.0 mg/kg sc) was 0.50 cm^3. For the same compound, the “Tumor measurements L” value (mouse F3, SCV-07 0.01 mg/kg sc) was 0.1 cm, the “Tumor measurements W” value (mouse F3, SCV-07 0.01 mg/kg sc) was 0.1 cm and the Tumor volumes (mouse F3, SCV-07 0.01 mg/kg sc) was 5E−04 cm^3. For the same compound, the “Tumor measurements L” value (mouse F3, SCV-07 0.1 mg/kg sc) was 1.1 cm, the “Tumor measurements W” value (mouse F3, SCV-07 0.1 mg/kg sc) was 1.0 cm and the Tumor volumes (mouse F3, SCV-07 0.1 mg/kg sc) was 0.55 cm^3. The “Tumor measurements L” value (mouse F3, SCV-07 1.0 mg/kg sc) was 1.0 cm, the “Tumor measurements W” value (mouse F3, SCV-07 1.0 mg/kg sc) was 1.0 cm and the Tumor volumes (mouse F3, SCV-07 1.0 mg/kg sc) was 0.50 cm^3. For the same compound, the “Tumor measurements L” value (mouse F3, SCV-07 5.0 mg/kg sc) was 0.7 cm, the “Tumor measurements W” value (mouse F3, SCV-07 5.0 mg/kg sc) was 0.7 cm and the Tumor volumes (mouse F3, SCV-07 5.0 mg/kg sc) was 0.17 cm^3. The “Tumor measurements L” value (mouse F4, SCV-07 0.01 mg/kg sc) was 1.0 cm, the “Tumor measurements W” value (mouse F4, SCV-07 0.01 mg/kg sc) was 1.0 cm and the Tumor volumes (mouse F4, SCV-07 0.01 mg/kg sc) was 0.50 cm^3. The “Tumor measurements L” value (mouse F4, SCV-07 0.1 mg/kg sc) was 1.1 cm, the “Tumor measurements W” value (mouse F4, SCV-07 0.1 mg/kg sc) was 1.1 cm and the Tumor volumes (mouse F4, SCV-07 0.1 mg/kg sc) was 0.67 cm^3. The “Tumor measurements L” value (mouse F4, SCV-07 1.0 mg/kg sc) was 0.1 cm, the “Tumor measurements W” value (mouse F4, SCV-07 1.0 mg/kg sc) was 0.1 cm and the Tumor volumes (mouse F4, SCV-07 1.0 mg/kg sc) was 0.00 cm^3. For the same compound, the “Tumor measurements L” value (mouse F4, SCV-07 5.0 mg/kg sc) was 0.8 cm, the “Tumor measurements W” value (mouse F4, SCV-07 5.0 mg/kg sc) was 0.8 cm and the Tumor volumes (mouse F4, SCV-07 5.0 mg/kg sc) was 0.26 cm^3. For the same compound, the “Tumor measurements L” value (mouse F5, SCV-07 0.01 mg/kg sc) was 1.0 cm, the “Tumor measurements W” value (mouse F5, SCV-07 0.01 mg/kg sc) was 0.9 cm and the Tumor volumes (mouse F5, SCV-07 0.01 mg/kg sc) was 0.41 cm^3. For the same compound, the “Tumor measurements L” value (mouse F5, SCV-07 0.1 mg/kg sc) was 0.3 cm, the “Tumor measurements W” value (mouse F5, SCV-07 0.1 mg/kg sc) was 0.3 cm and the Tumor volumes (mouse F5, SCV-07 0.1 mg/kg sc) was 0.01 cm^3. For the same compound, the “Tumor measurements L” value (mouse F5, SCV-07 1.0 mg/kg sc) was 1.0 cm, the “Tumor measurements W” value (mouse F5, SCV-07 1.0 mg/kg sc) was 1.0 cm and the Tumor volumes (mouse F5, SCV-07 1.0 mg/kg sc) was 0.50 cm^3. The “Tumor measurements L” value (mouse F5, SCV-07 5.0 mg/kg sc) was 1.0 cm, the “Tumor measurements W” value (mouse F5, SCV-07 5.0 mg/kg sc) was 1.0 cm and the Tumor volumes (mouse F5, SCV-07 5.0 mg/kg sc) was 0.50 cm^3. For the same compound, the “Tumor measurements L” value (mouse M1, SCV-07 0.01 mg/kg sc) was 1.1 cm, the “Tumor measurements W” value (mouse M1, SCV-07 0.01 mg/kg sc) was 1.1 cm and the Tumor volumes (mouse M1, SCV-07 0.01 mg/kg sc) was 0.67 cm^3. For the same compound, the “Tumor measurements L” value (mouse M1, SCV-07 0.1 mg/kg sc) was 1.1 cm, the “Tumor measurements W” value (mouse M1, SCV-07 0.1 mg/kg sc) was 1.1 cm and the Tumor volumes (mouse M1, SCV-07 0.1 mg/kg sc) was 0.67 cm^3. For the same compound, the “Tumor measurements L” value (mouse M1, SCV-07 1.0 mg/kg sc) was 0.8 cm, the “Tumor measurements W” value (mouse M1, SCV-07 1.0 mg/kg sc) was 0.7 cm and the Tumor volumes (mouse M1, SCV-07 1.0 mg/kg sc) was 0.20 cm^3. The “Tumor measurements L” value (mouse M1, SCV-07 5.0 mg/kg sc) was 0.7 cm, the “Tumor measurements W” value (mouse M1, SCV-07 5.0 mg/kg sc) was 0.7 cm and the Tumor volumes (mouse M1, SCV-07 5.0 mg/kg sc) was 0.17 cm^3. The “Tumor measurements L” value (mouse M2, SCV-07 0.01 mg/kg sc) was 0.9 cm, the “Tumor measurements W” value (mouse M2, SCV-07 0.01 mg/kg sc) was 0.9 cm and the Tumor volumes (mouse M2, SCV-07 0.01 mg/kg sc) was 0.36 cm^3. For the same compound, the “Tumor measurements L” value (mouse M2, SCV-07 0.1 mg/kg sc) was 0.9 cm, the “Tumor measurements W” value (mouse M2, SCV-07 0.1 mg/kg sc) was 0.9 cm and the Tumor volumes (mouse M2, SCV-07 0.1 mg/kg sc) was 0.36 cm^3. The “Tumor measurements L” value (mouse M2, SCV-07 1.0 mg/kg sc) was 1.0 cm, the “Tumor measurements W” value (mouse M2, SCV-07 1.0 mg/kg sc) was 1.0 cm and the Tumor volumes (mouse M2, SCV-07 1.0 mg/kg sc) was 0.50 cm^3. The “Tumor measurements L” value (mouse M2, SCV-07 5.0 mg/kg sc) was 0.9 cm, the “Tumor measurements W” value (mouse M2, SCV-07 5.0 mg/kg sc) was 0.9 cm and the Tumor volumes (mouse M2, SCV-07 5.0 mg/kg sc) was 0.36 cm^3. The “Tumor measurements L” value (mouse M3, SCV-07 0.01 mg/kg sc) was 1.1 cm, the “Tumor measurements W” value (mouse M3, SCV-07 0.01 mg/kg sc) was 0.9 cm and the Tumor volumes (mouse M3, SCV-07 0.01 mg/kg sc) was 0.45 cm^3. The “Tumor measurements L” value (mouse M3, SCV-07 0.1 mg/kg sc) was 1.1 cm and the “Tumor measurements W” value (mouse M3, SCV-07 0.1 mg/kg sc) was 1.1 cm.
